The record followed here is ChEMBL document CHEMBL1142825, “Synthesis and antiviral activity against Coxsackie virus B3 of some novel benzimidazole derivatives” (Bioorg Med Chem Lett, 2005).

Structures are written as SMILES. In brackets after ≈: the same amount, converted by molar mass. Several values for one entry are separate records, joined by “and”; a condition that tells them apart may be missing. Equal entries are not always repeated. Where only a bound is given, the exact number is not on record here.

Assay [1] deals with Vero. As to the kind of experiment: Antiviral activity against Coxsackie virus B3 growth by 50% in Vero cells. It counts as functional, cell-based, Chlorocebus sabaeus.
The subject of assay [2] is Vero. As to the kind of experiment: Cytotoxic concentration required to inhibit Vero cell growth by 50%. The note with it: for CC50: Chlorocebus sabaeus, Vero, read-out: TC50 (the source's name). Type of assay: functional, Chlorocebus sabaeus.
For assay [3], the system named is Vero. Description: Selectivity index (TC50/IC50) against Coxsackie virus B3 in Vero cells. Type of assay: functional, Chlorocebus sabaeus.
Assay [4] concerns Vero. Description: Antiviral activity against Coxsackie virus B3 growth by 50% in Vero cells:not active. It counts as functional, cell-based, Chlorocebus sabaeus.
[5] abbreviates: Chlorocebus sabaeus, Vero, read-out: IC50.

Take `O=C(Nc1cccc(Br)c1)c1cccc2[nH]c(-c3ccncc3)nc12`: the IC50 in the assay on Vero [1] (setting [5]) amounted to 4.12 µg/mL (≈ 10.5 µM). For the same compound, in the assay on Vero [2], the CC50 was less than 8.24 µg/mL. Besides, in the assay on Vero [3], the SI is 2.
For `O=C(Nc1ccccc1F)c1cccc2[nH]c(-c3ccncc3)nc12`, the IC50 result with Vero [4] is given as “Not Active”. In addition, the CC50 in the assay with Vero [2] was 12.3 µg/mL (≈ 37 µM).
Consider `O=C(Nc1ccccc1)c1cccc2[nH]c(-c3cccnc3)nc12`, for which the IC50 in the assay with Vero [1] (setting [5]) stood at 1.17 µg/mL (≈ 3.72 µM). In addition, the CC50 in the assay with Vero [2] is 10.7 µg/mL (≈ 34.2 µM). The compound further showed an SI in the assay with Vero [3] of 9.17.
On the same counts, the results for `O=C(Nc1ccccc1O)c1cccc2[nH]c(-c3ccncc3)nc12` are 4.05 µg/mL (≈ 12.3 µM), less than 18.5 µg/mL and 4.56.
As for `Cc1ccccc1NC(=O)c1cccc2[nH]c(-c3ccncc3)nc12`, the IC50 in the assay with Vero [1] (setting [5]) turned out to be 2.42 µg/mL (≈ 7.37 µM); in the assay on Vero [1] (vero) it was 2.23 µg/mL (≈ 6.79 µM). In addition, the TC50 with Vero [2] was <27.8 µg/mL and <10.74 µg/mL. In addition, the SI in the assay on Vero [3] was 11.48 and 4.81.
For `O=C(Nc1cccc(O)c1)c1cccc2[nH]c(-c3ccncc3)nc12`, the concentration for half-maximal inhibition (IC50) result with Vero [4] is given as “Not Active”. Also, the CC50 in the assay on Vero [2] is less than 5.9 µg/mL.
On to `NC(=O)c1cccc2[nH]c(-c3cccnc3)nc12`, for which, in the assay with Vero [1] (setting [5]), the IC50 is 6.2 µg/mL (≈ 26 µM). For the same compound, the CC50 in the assay with Vero [2] stood at 18.5 µg/mL (≈ 77.6 µM). The compound further yielded an SI in the assay on Vero [3] of 2.98.
`O=C(Nc1ccc([N+](=O)[O-])cc1)c1cccc2[nH]c(-c3ccncc3)nc12`: the IC50 in the assay on Vero [1] (setting [5]) worked out at 18.5 µg/mL (≈ 51.5 µM). In addition, the CC50 in the assay on Vero [2] is less than 55.5 µg/mL. The compound also gave an SI in the assay with Vero [3] of 2.99.
For `O=C(Nc1ccccc1)c1cccc2[nH]c(-c3ccccn3)nc12`, in that order: 1.43 µg/mL (≈ 4.55 µM), 55.6 µg/mL (≈ 177 µM) and 38.8.
`O=C(NCCO)c1cccc2[nH]c(-c3ccncc3)nc12`: the IC50 result in the assay with Vero [4] was “Not Active”. The CC50 in the assay on Vero [2] is 141 µg/mL (≈ 498 µM).
As for `O=C(Nc1ccccc1F)c1cccc2[nH]c(-c3cccnc3)nc12`, the IC50 in the assay with Vero [1] (setting [5]) was 3.23 µg/mL (≈ 9.72 µM). The CC50 in the assay on Vero [2] turned out to be 37 µg/mL (≈ 111 µM). Besides, in the assay with Vero [3], the SI turned out to be 11.4.
For `O=C(NCCO)c1cccc2[nH]c(-c3cccnc3)nc12`, in that order: 25.6 µg/mL (≈ 90.6 µM), 192 µg/mL (≈ 682 µM) and 7.51.
On the same counts, the results for `NC(=O)c1cccc2[nH]c(-c3ccccn3)nc12` are 7.29 µg/mL (≈ 30.6 µM), 53.4 µg/mL (≈ 224 µM) and 7.32.
For `O=C(Nc1ccc(Cl)cc1)c1cccc2[nH]c(-c3ccncc3)nc12`, in that order: 8.72 µg/mL (≈ 25 µM), less than 20.9 µg/mL and 2.35.
In the case of `O=C(Nc1ccccc1)c1cccc2[nH]c(-c3ccncc3)nc12`, the half-inhibitory concentration (IC50) with Vero [1] (setting [5]) came out at 3.85 µg/mL (≈ 12.2 µM). Further, the CC50 with Vero [2] worked out at 15.6 µg/mL (≈ 49.8 µM). Moreover, the SI in the assay with Vero [3] amounted to 4.06.
For `O=C(NCCO)c1cccc2[nH]c(-c3ccccn3)nc12`, in that order: 37 µg/mL (≈ 131 µM), 160 µg/mL (≈ 567 µM) and 4.32.
For `O=C(Nc1ccccc1F)c1cccc2[nH]c(-c3ccccn3)nc12`, in that order: 0.54 µg/mL (≈ 1.62 µM), 15.3 µg/mL (≈ 46.1 µM) and 28.3.
On the same counts, the results for `NC(=O)c1ncn([C@@H]2O[C@H](CO)[C@@H](O)[C@H]2O)n1` [RIBAVIRIN] are 448 µg/mL (≈ 1830 µM), greater than 1000 µg/mL and greater than 2.23.
